The IC50 is the point on the concentration scale where inhibition reaches its midpoint.

Each structure is given as a SMILES string.

Assay [1] relates to Leishmania donovani. Nature of the assay: The in vitro leishmanicidal activity by measuring the 3H thymidine incorporation in promastigotes of Leishmania donovani at 200 uM concentration. In kind it is functional.
For assay [2], the system named is Leishmania donovani. Nature of the assay: The in vitro leishmanicidal activity by measuring the 3H thymidine incorporation in promastigotes of Leishmania donovani. In kind it is functional, organism-based. In general terms: Dividing cells build labelled thymidine or BrdU into new DNA.
Assay [3] concerns Leishmania donovani. Nature of the assay: The in vitro leishmanicidal activity by measuring the 3H thymidine incorporation in promastigotes of Leishmania donovani at 100 uM concentration. In kind it is functional.

Compound `Cc1cc(O)n2nc(NS(=O)(=O)c3ccc(Cl)cc3)nc2n1` came in with a Growth inhibition in the assay with Leishmania donovani [1] of 5%.

In the assay with Leishmania donovani [2], `Nc1n[nH]c(NS(=O)(=O)c2ccccc2)n1` gave a half-maximal inhibitory concentration (IC50) of 2000 nM. Moreover, in the assay on Leishmania donovani [1], the Growth inhibition was found to be 97%. The compound `O=S(=O)(Nc1nc2nc3c(c(O)n2n1)CCC3)c1ccc(Cl)cc1` displayed a Growth inhibition with Leishmania donovani [1] of 15%. Still for that read-out and setting: then `N#Cc1cnc2nc(NS(=O)(=O)c3ccc(Cl)cc3)nn2c1N`, with 0%. For `O=S(=O)(Nc1nc2nc(-c3ccccc3)cc(-c3ccccc3)n2n1)c1ccc(Cl)cc1`, the IC50 with Leishmania donovani [2] came out at 2000 nM. This compound came in with a Growth inhibition in the assay on Leishmania donovani [1] of 98%.

As to `Cc1ccc2nc(NS(=O)(=O)c3ccc(N)cc3)oc2c1`, it took 15500 nM to reach half-maximal inhibition in the assay with Leishmania donovani [2] (IC50). The same compound came in with a Growth inhibition with Leishmania donovani [1] of 92.6%. For `Cc1ccc(S(=O)(=O)Nc2nc3nc(C)cc(C)n3n2)cc1`, in that order: 1500 nM and 100%. The like results for `Nc1ccc(S(=O)(=O)Nc2nc3ccccc3o2)cc1` were, in that order, 6400 nM and 74%. The like results for `Nc1ccc(S(=O)(=O)Nc2nc3ccccc3[nH]2)cc1` were, in that order, 10500 nM and 80%. `CCOC(=O)c1cnc2nc(NS(=O)(=O)c3ccc(Cl)cc3)nn2c1O` yielded a Growth inhibition in the assay on Leishmania donovani [1] of 0%. Still for that read-out and setting: then `CCOC(=O)c1cnc2nc(NS(=O)(=O)c3ccc(Cl)cc3)nn2c1N`, with 0%. In the assay with Leishmania donovani [2], `Cc1ccc(S(=O)(=O)Nc2nc3nc(-c4ccccc4)cc(O)n3n2)cc1` registered a half-maximal inhibitory concentration (IC50) of 2000 nM. This compound also showed a Growth inhibition in the assay on Leishmania donovani [1] of 100%. In turn, `CSc1nc2nc(NS(=O)(=O)c3ccc(Cl)cc3)nn2c(N)c1C#N` came in with a Growth inhibition with Leishmania donovani [1] of 17%. The same measure, in the same setting: then `Cc1cc(C)n2nc(NS(=O)(=O)c3ccc(Cl)cc3)nc2n1`, with 3%. In the assay on Leishmania donovani [2], `N=C(N)c1ccc(OCCCCCOc2ccc(C(=N)N)cc2)cc1` [PENTAMIDINE] came in with an IC50 of 760 nM. In the assay with Leishmania donovani [3], this compound registered a Growth inhibition of 100%.

The record behind these values is ChEMBL document CHEMBL1129912, “Functionalized azoles and triazolo[1,5-a]pyrimidines as latent leishmanicides” (Bioorg Med Chem Lett, 1997).
